Measurements reported in patent US12006500B2 (priority 2020, dated 2024).
Like-named read-outs stand apart in the source and are kept apart here. d = 2'-deoxy (DNA); r = 2'-OH (RNA)

Columns and labels:
Format in all cases: cell-based
[1] = test system: SARS-CoV-2 target gene fragments (Spike, ORF1ab, ORF3A & E & M, N & ORF10 & 3'UTR); conditions: for Primary Screening (KD %, 60 ng/well, 48 h, 96 well) 293T / EC50 (pg/ul, 48 h, 96 well) 293T: Table C; for EC50 293T cells: Table D
[2] = test system: SARS-CoV-2; conditions: for block of infection at the lowest concentration tested / inhibition of infection compared to the NS control: concentration curves; for block of infection at the lowest concentration tested: 3 nM; for Duplicate A % Infection / Duplicate B % Infection / Mean % infected / Mean % inhibition / Duplicate A % Inhibition / Duplicate B % Inhibition: primary screen using live virus; for Mean % infected / Mean % inhibition: average of the duplicates; for Mean % inhibition: vs non-silencing controls; for Duplicate A % Inhibition / Duplicate B % Inhibition: compared to the mean of the non-silencing controls; for inhibition of infection compared to the NS control: individual siRNAs at varying concentrations, flat response
[3] = test system: SARS-CoV-2 target gene fragments (Spike, ORF1ab, ORF3A & E & M, N & ORF10 & 3'UTR); conditions: for Primary Screening (KD %, 60 ng/well, 48 h, 96 well) A549 / EC50 (pg/ul, 48 h, 96 well) A549: Table C; for EC50 A549 cells: Table D

## GGAAGGAAGTTCTGTTGAA [COV3]
[1]
  EC50 on the inhibition efficiency: 5.8 ng/mL
  Primary Screening (KD %, 60 ng/well, 48 h, 96 well) 293T: 89%
  EC50 (pg/ul, 48 h, 96 well) 293T: 5.8 pg/µL
  EC50 293T cells: 5.8 ng/mL
[2]
  inhibition of the virus: 100%
  block of infection at the lowest concentration tested: complete block of infection
  Duplicate A % Infection: 3%
  Duplicate B % Infection: 6%
  Mean % infected: 5%
  Mean % inhibition: 81%
  Duplicate A % Inhibition: 84%
  Duplicate B % Inhibition: 79%
  activity in a primary screen using live virus (ranking in words): best activity
[2]; 0.041 nM alone
  inhibition, single siRNA alone: ~48%
[3]; A549
  EC50 on the inhibition efficiency: 0.3 ng/mL
  Primary Screening (KD %, 60 ng/well, 48 h, 96 well) A549: 89%
  EC50 (pg/ul, 48 h, 96 well) A549: 0.3 pg/µL
[3]
  EC50 A549 cells: 0.3 ng/mL

## CCACCAACAGAGCCTAAAA [COV18]
[2]
  inhibition of the virus: 100%
  block of infection at the lowest concentration tested: complete block of infection
  Duplicate A % Infection: 9%
  Duplicate B % Infection: 7%
  Mean % infected: 8%
  Mean % inhibition: 68%
  Duplicate A % Inhibition: 59%
  Duplicate B % Inhibition: 76%
  activity in a primary screen using live virus (ranking in words): best activity

## CCCACCAACAGAGCCTAAA [COV17]
[2]
  block of infection at the lowest concentration tested: complete block of infection

## CUAAUCUUGCUGCUACUAAdTdT [Guangzhou12]
[1]
  Primary Screening (KD %, 60 ng/well, 48 h, 96 well) 293T: 70%
[3]; A549
  Primary Screening (KD %, 60 ng/well, 48 h, 96 well) A549: 85%

## UCUGCUAAUCUUGCUGCUACUAAAA (antisense strand not given here) [Guangzhou32]
[1]
  Primary Screening (KD %, 60 ng/well, 48 h, 96 well) 293T: 89%
  EC50 (pg/ul, 48 h, 96 well) 293T: 8 pg/µL
  EC50 293T cells: ~8 ng/mL
[3]; A549
  Primary Screening (KD %, 60 ng/well, 48 h, 96 well) A549: 90%

## GGACAAUCAAAAAGAGUUGdTdT [Guangzhou16]
[1]
  Primary Screening (KD %, 60 ng/well, 48 h, 96 well) 293T: 83%
  EC50 (pg/ul, 48 h, 96 well) 293T: 20.4 pg/µL
[3]; A549
  Primary Screening (KD %, 60 ng/well, 48 h, 96 well) A549: 80%

## CUAAUCUUGCUGCUACUAAAAUGUC (antisense strand not given here) [Guangzhou23]
[1]
  Primary Screening (KD %, 60 ng/well, 48 h, 96 well) 293T: 79%
[3]; A549
  Primary Screening (KD %, 60 ng/well, 48 h, 96 well) A549: 87%

## UUUGGUGGUUUUAAUUUUUCACAAA (antisense strand not given here) [Guangzhou30]
[1]
  Primary Screening (KD %, 60 ng/well, 48 h, 96 well) 293T: 86%
[3]; A549
  Primary Screening (KD %, 60 ng/well, 48 h, 96 well) A549: 78%

## GCUAAUCUUGCUGCUACUAAAAUGU [Guangzhou22]
[1]
  Primary Screening (KD %, 60 ng/well, 48 h, 96 well) 293T: 83%
  EC50 (pg/ul, 48 h, 96 well) 293T: 23.2 pg/µL
[3]; A549
  Primary Screening (KD %, 60 ng/well, 48 h, 96 well) A549: 90%

## CCCTAATGTGTAAAATTAA [COV23]
[2]
  block of infection at the lowest concentration tested: complete block of infection

## CGACTACTAGCGTGCCTTT [COV6]
[1]
  Primary Screening (KD %, 60 ng/well, 48 h, 96 well) 293T: 78%
  EC50 (pg/ul, 48 h, 96 well) 293T: 17.9 pg/µL
  EC50 293T cells: 17.9 ng/mL
[2]
  inhibition of infection compared to the NS control: ~50%
[3]; A549
  Primary Screening (KD %, 60 ng/well, 48 h, 96 well) A549: 87%
  EC50 (pg/ul, 48 h, 96 well) A549: 0.9 pg/µL
[3]
  EC50 A549 cells: 0.9 ng/mL

## UUGGUGGUUUUAAUUUUUCACAAAU (antisense strand not given here) [Guangzhou31]
[1]
  Primary Screening (KD %, 60 ng/well, 48 h, 96 well) 293T: 81%
  EC50 (pg/ul, 48 h, 96 well) 293T: 44 pg/µL
[3]; A549
  Primary Screening (KD %, 60 ng/well, 48 h, 96 well) A549: 73%

## CUUGCUGCUACUAAAAUGUdTdT [Guangzhou13]
[1]
  Primary Screening (KD %, 60 ng/well, 48 h, 96 well) 293T: 76%
[3]; A549
  Primary Screening (KD %, 60 ng/well, 48 h, 96 well) A549: 82%

## CCTTTGAAAAAGGTGACTA [COV5]
[1]
  Primary Screening (KD %, 60 ng/well, 48 h, 96 well) 293T: 85%
[3]; A549
  Primary Screening (KD %, 60 ng/well, 48 h, 96 well) A549: 84%

## CCTAATGTGTAAAATTAAT [COV24]
[1]
  Primary Screening (KD %, 60 ng/well, 48 h, 96 well) 293T: 86%
  EC50 (pg/ul, 48 h, 96 well) 293T: 2.4 pg/µL
  EC50 293T cells: 2.4 ng/mL
[2]
  block of infection at the lowest concentration tested: complete block of infection

## GGAAGAGCCCTAATGTGTA [COV21]
[2]
  block of infection at the lowest concentration tested: complete block of infection

## GCCGCAAATTGCACAATTT [COV15]
[2]
  block of infection at the lowest concentration tested: complete block of infection
  Duplicate A % Infection: 10%
  Duplicate B % Infection: 13%
  Mean % infected: 11%
  Mean % inhibition: 56%
  Duplicate A % Inhibition: 54%
  Duplicate B % Inhibition: 57%

## GGCCGCAAATTGCACAATT [COV14]
[2]
  block of infection at the lowest concentration tested: complete block of infection
  Duplicate A % Infection: 9%
  Duplicate B % Infection: 8%
  Mean % infected: 8%
  Mean % inhibition: 66%
  Duplicate A % Inhibition: 57%
  Duplicate B % Inhibition: 75%
  activity in a primary screen using live virus (ranking in words): best activity

## CAAGUCAAACAAAUUUACAdTdT (sense CAAGUCAAACAAAUUUACATT; sugars from the 5' end r19 d2, backbone not given here) [Guangzhou5]
[1]
  Primary Screening (KD %, 60 ng/well, 48 h, 96 well) 293T: 75%
[3]; A549
  Primary Screening (KD %, 60 ng/well, 48 h, 96 well) A549: 80%

## CGCTTCGATTGTGTGCGTA [COV9]
[1]
  Primary Screening (KD %, 60 ng/well, 48 h, 96 well) 293T: 88%
[2]
  inhibition of infection compared to the NS control: ~50%
[3]; A549
  Primary Screening (KD %, 60 ng/well, 48 h, 96 well) A549: 74%

## GCCATTAGTGCAAAGAATA [COV4]
[2]
  inhibition of the virus: 100%
  block of infection at the lowest concentration tested: complete block of infection
  Duplicate A % Infection: 6%
  Duplicate B % Infection: 5%
  Mean % infected: 6%
  Mean % inhibition: 77%
  Duplicate A % Inhibition: 70%
  Duplicate B % Inhibition: 84%
  activity in a primary screen using live virus (ranking in words): best activity

## CCAGAACAAACCCAAGGAA [COV13]
[1]
  Primary Screening (KD %, 60 ng/well, 48 h, 96 well) 293T: 84%
  EC50 (pg/ul, 48 h, 96 well) 293T: 3.1 pg/µL
  EC50 293T cells: 3.1 ng/mL

## UGCUAAUCUUGCUGCUACUAAAAUG (antisense strand not given here) [Guangzhou25]
[1]
  Primary Screening (KD %, 60 ng/well, 48 h, 96 well) 293T: 83%
[3]; A549
  Primary Screening (KD %, 60 ng/well, 48 h, 96 well) A549: 90%

## CUGCUAAUCUUGCUGCUACUAAAAU [Guangzhou21]
[1]
  Primary Screening (KD %, 60 ng/well, 48 h, 96 well) 293T: 81%
[3]; A549
  Primary Screening (KD %, 60 ng/well, 48 h, 96 well) A549: 91%
